Values quoted from earlier work as cited in patent publication US20200306172A1, “DEPIGMENTING DERMATOLOGICAL AND COSMETIC COMPOSITIONS” (NUNII LABORATOIRE, priority 2017, published 2020).
Read-outs that look alike come from different tables or passages of the source.

Columns and labels:
[1] = powder raw material
[2] = pH 4 to pH 6

Structure (SMILES)	solubility [1]	stability [2]	depigmenting activity (kojic acid at 1%)	depigmenting activity (kojic acid at 4% dose)
CCOC1=C(O)C(=O)O[C@@H]1[C@@H](O)CO [3-O-ethyl-L-ascorbic acid]	soluble in water and alcohol	more stable than ascorbic acid and its other derivatives	–	–
NC(=O)c1cccnc1 [Niacinamide]	readily soluble in water, alcohol or glycerol	–	–	–
Oc1ccc(/C=C/c2cc(O)cc(O)c2)cc1 [Trans-resveratrol]	soluble in polyethylene glycols and propylene glycols	–	–	–
O=c1cc(CO)occ1O [kojic acid]	–	–	no depigmenting activity	shows a depigmenting effect
OCC1O[C@H](Oc2ccc(O)cc2)C(O)C(O)[C@@H]1O (stereo partly drawn) [α-arbutin]	readily soluble in water	–	–	–
